# Experimental data taken from patent US20220259164A1, “USE OF AMINOTHIOL COMPOUNDS AS CEREBRAL NERVE OR HEART PROTECTIVE AGENT” (SHANGHAI KECHOW PHARMA, INC., priority 2019, published 2022).
# Several values for one entry are separate records, joined by “and”; a condition that tells them apart may be missing. Equal entries are not always repeated.
# Columns and labels:
# [1] = test system: rat myocardial infarction model (coronary ligation 30 min, reperfusion); experiment: Myocardial infarction model: myocardial infarction range (TTC staining); format: in vivo; conditions: isosorbide mononitrate injection i.v. 1 mg/kg
# Description: (§1) 1. The rats were grouped and administered according to the following methods (2) Compound B (i.v.) at 100 mg/kg (3) Compound A (i.v.) at 100 mg/kg (4) Compound A (oral) at 500 mg/kg (5) Isosorbide mononitrate injection (i.v.) at 1 mg/kg (equivalent to clinical equivalent dose). There were 10 rats in each group, and the rats were administered intravenously immediately after 30 min of ischemia and reperfusion, i.v. 10% 1 min+i.v. drip 90% 30 min. The administration volume was 2 ml/rat. Compound A (oral) at 500 mg/kg was administered intragastrically 2 h after reperfusion when the animal was awake, and the administration volume was 10 ml/kg. Note: Compounds A and B used in this example were in the form of hydrochloride salts thereof. Given intraperitoneal injection of 3% sodium pentobarbital at 60 mg/kg for general anesthesia, the rats were fixed on an operating table in the supine position. The surgical field of the anterolateral chest was depilated and routinely disinfected. The skin and muscular layer were cut open, purse-string suture was performed on the muscular layer, the chest was opened on the left at the fourth intercostal space, and the heart was pulled out with a ring-shaped retractor. At the position of the anterior descending coronary artery 3-4 mm below the left atrial appendage, a 6/0 damage-free silk thread was threaded, and a nylon thread with a diameter of 1.6 mm was juxtaposed and ligated together with the anterior descending coronary artery, while the other end was left outside the body for later use. The heart was placed back into the chest cavity, the air in the chest cavity was emptied, and the chest cavity was closed. 30 min after ligation, the nylon thread was carefully removed for reperfusion. Compared with the normal lead II electrocardiogram (ECG-II), ST segment elevation in ECG-II by 0.1 mV or more 30 min after coronary artery ligation was regarded as successful ischemia.
# [2] = test system: rat myocardial infarction model (coronary ligation 30 min, reperfusion); experiment: Myocardial infarction model: myocardial enzyme LDH in serum; format: in vivo; conditions: isosorbide mononitrate injection i.v. 1 mg/kg
# Description: as §1, with “ischemia. […] Blood was collected from the rats through the abdominal aorta and centrifuged at 3000 rpm×10 min at 4° C., and the upper serum was taken to determine LDH by enzyme-linked immunosorbent assay.” for “ischemia.”
# [3] = test system: cisplatin-induced nephrotoxicity in SD rats; experiment: Cisplatin-induced nephrotoxicity in SD rats: blood creatinine and urea nitrogen; format: in vivo, rat; conditions: for Creatinine / Urea nitrogen: whole blood day 5, individual rats
# Description: Healthy male SPF grade SD rats (body weight 250-300 g) were selected. Control group: PBS […] Cisplatin+compound B group: 5 mg/kg i.p.+compound B at 200 mg/kg i.p., with compound B being administered 30 min prior to cisplatin administration Cisplatin+amifostine group: 5 mg/kg i.p.+AMI at 200 mg/kg i.p., with AMI being administered 30 min prior to cisplatin administration Cisplatin+compound A group: 5 mg/kg i.p.+compound A at 800 mg/kg p.o., with compound A being administered 30 min prior to cisplatin administration (1) The SD rats used in the experiment were weighed, labeled, and evenly divided into 5 groups, with 3 SD rats in each group. (2) The compound B, compound A, and AMI groups were respectively administered at the planned concentrations. […] (3) The rats were weighed and recorded daily, and on day 5, blood was taken from the intraocular canthus of the SD rats and placed in an anticoagulant tube.
# [4] = Body weight of cisplatin-induced SD rats; format: in vivo, rat
# Description: Healthy male SPF grade SD rats (body weight 250-300 g) were selected. Cisplatin+compound B group: 5 mg/kg i.p.+compound B at 200 mg/kg i.p., with compound B being administered 30 min prior to cisplatin administration Cisplatin+amifostine group: 5 mg/kg i.p.+AMI at 200 mg/kg i.p., with AMI being administered 30 min prior to cisplatin administration Cisplatin+compound A group: 5 mg/kg i.p.+compound A at 800 mg/kg p.o., with compound A being administered 30 min prior to cisplatin administration (1) The SD rats used in the experiment were weighed, labeled, and evenly divided into 5 groups, with 3 SD rats in each group. (2) The compound B, compound A, and AMI groups were respectively administered at the planned concentrations. […] (3) The rats were weighed and recorded daily, and on day 5, blood was taken from the intraocular canthus of the SD rats and placed in an anticoagulant tube.
# [5] = test system: SD rat cerebral ischemia reperfusion injury model (MCAO); experiment: Neurobehavioral evaluation (5-point Longa/Bederson score) in rat ischemic stroke model (MCAO); format: in vivo; design: key to Neurological function score After modeling: Longa/Bederson 5-point scale (0-4); higher = more severe deficit; conditions: for Neurological function score After modeling: individual rats
# Text: Healthy male SPF grade SD rats (body weight 250-300 g) were selected. […] (2) A midline neck incision was made to expose the right common carotid artery, internal carotid artery and external carotid artery. A 6-0 silk thread was used to ligate the distal end of the external carotid artery at 4 mm from the bifurcation of the common carotid artery, another 6-0 silk thread was inserted at the external carotid artery, and a slipknot was tied near the bifurcation of the common carotid artery. (3) An arterial clamp was used to clamp the common carotid artery. […] (4) The thread embolism was removed 90 min after ischemia, the proximal end of the external artery was ligated with a 6-0 silk thread, the neck wound was sutured with a 3-0 silk thread, the wound was disinfected with povidone iodine, the rats were placed on a heating pad, and after being awake, they were placed in a constant temperature rearing box for rearing. […] The experimental animals were scored for signs of neurological function deficit before and after modeling. The scoring standard was given by reference to the 5-point system of Longa and Bederson. The scoring was performed 24 h after the animals were awake from anesthesia. The higher the score, the more severe the behavioral disorder of the animals. 0 point: No nerve damage symptoms […] Inability to fully extend the contralateral front paw […] Turning in a circle to the opposite side […] Falling over to the opposite side 4 points: Inability to walk spontaneously, and loss of consciousness In a manner same as in Example 1, experimental animals were selected, except that the experiment was divided into seven groups (i.e., groups […], and G, among which groups C, D, and E were given different dosages of administration from Example 1, group F was given edaravone, and group G was given amifostine).
# [6] = test system: SD rat cerebral ischemia reperfusion injury model (MCAO); experiment: TTC staining and cerebral infarction area in rat ischemic stroke model (MCAO); format: in vivo; conditions: for Cerebral infarction area: individual rats
# Description: Healthy male SPF grade SD rats (body weight 250-300 g) were selected. (1) The rats were anesthetized, the skin on the neck was prepared, and the body temperature was maintained at 37±0.5° C. (2) A midline neck incision was made to expose the right common carotid artery, internal carotid artery and external carotid artery. A 6-0 silk thread was used to ligate the distal end of the external carotid artery at 4 mm from the bifurcation of the common carotid artery, another 6-0 silk thread was inserted at the external carotid artery, and a slipknot was tied near the bifurcation of the common carotid artery. (3) An arterial clamp was used to clamp the common carotid artery. A small opening was cut on the external carotid artery at 3 mm from the bifurcation of the common carotid artery, and a 0.33 mm diameter nylon thread with a treated head end was inserted through the small opening, entered the internal carotid artery, and was inserted inward to the middle cerebral artery, wherein the insertion depth of the nylon thread was about 16±1 mm from the bifurcation of the common carotid artery. (4) The thread embolism was removed 90 min after ischemia, the proximal end of the external artery was ligated with a 6-0 silk thread, the neck wound was sutured with a 3-0 silk thread, the wound was disinfected with povidone iodine, the rats were placed on a heating pad, and after being awake, they were placed in a constant temperature rearing box for rearing. […] After the rats were anesthetized, the brain tissues were taken from the rats, placed in a refrigerator and frozen at -20° C. for 30 min. 1% TTC (W/V) was prepared with PBS and placed in a water bath at 37° C. until the TTC was dissolved, and the frozen brain tissue was sliced, placed in 10 ml of the TTC solution and incubated at 37° C. for 10 min. The brain slices were turned from time to time to make the tissue evenly stained. Normal brain tissue was bright red after staining, whereas the infarction region was pale white in color or light white in a black and white image. In addition, a software was used to measure and statistically analyze the infarction area. In a manner same as in Example 1, experimental animals were selected, except that the experiment was divided into seven groups (i.e., groups […], and G, among which groups C, D, and E were given different dosages of administration from Example 1, group F was given edaravone, and group G was given amifostine).
# [7] = test system: radiation intestinal injury in C57 male mice; experiment: Protective effect on radiation intestinal injury (HE staining of small intestine); format: in vivo; conditions: 517 mpk i.p. 30 min before 16 Gy abdominal irradiation; fifth day
# Description: (§2) C57 male mice were randomly divided into 4 groups, namely a blank control group, an irradiation group, a compound B (TFA) irradiation group, and an AMI irradiation group, respectively. The mode of administration for each group was an intraperitoneal injection, 30 min before irradiation. The dosage of administration was 517 mpk, and the abdominal irradiation dose was 16 Gy. On the fifth day, the small intestine tissue was taken for HE staining.
# [8] = test system: radiation lung injury in C57 male mice; experiment: Protective effect on radiation lung injury (HE staining of lung); format: in vivo; conditions: 517 mpk i.p. 30 min before 17 Gy right lung irradiation; months 2, 4, 6
# Description: as §2, with “the” for “the abdominal”, “dose to the right lung” for “dose”, “17” for “16”, “[…] Lung tissues were taken at months 2, 4, and 6 for HE staining” for “staining.”
# [9] = Example 2 group F: edaravone 3 mg/kg i.v. before reperfusion
# [10] = Example 2 group G: amifostine 100 mg/kg i.p. 5 min before reperfusion
# [11] = amifostine 200 mg/kg i.p. 30 min prior to cisplatin 5 mg/kg i.p.
structure (smiles),measurement,setting,value
"O=[N+]([O-])O[C@@H]1CO[C@H]2[C@@H]1OC[C@@H]2O [Isosorbide mononitrate injection, Isosorbide mononitrate, reference compound]",Improvement rate (%) of myocardial infarction range,[1]; compared with model group,25.5%
same,Infarction range (%),"[1]; x ± s, n = 10",30.1 ± 6.7 %
same,Improvement rate (%) of LDH,[2]; compared with model group,22.4%
same,LDH,"[2]; serum, x ± s, n = 10",1472.7 ± 454.5 U/L
"[NH2][Pt]([NH2])([Cl])[Cl] [CDDP, cisplatin, reference compound]",Creatinine,[3]; cisplatin alone 5 mg/kg i.p.,58.6 µmol/L and 54.1 µmol/L and 78 µmol/L
same,Urea nitrogen,[3]; cisplatin alone 5 mg/kg i.p.,18.70 mmol/L and 7.81 mmol/L and 12.9 mmol/L
same,Change in body weight,[4]; cisplatin alone 5 mg/kg i.p.,the body weight dropped significantly
"CC1=NN(c2ccccc2)C(=O)C1 [edaravone, reference compound]",% Behavioral improvement,[5]; [9],46.99%
same,Neurological function score After modeling,[5]; [9],1 (4×) and 2 and 3
same,% Improvement of cerebral infarction area,[6]; [9],58.85% and 58.95%
same,Cerebral infarction area,[6]; [9],0 mm^3 (2×) and 10.31 mm^3 and 45.35 mm^3 and 220.66 mm^3 and 17.11 mm^3
"NCCCNCCSP(=O)(O)O [amifostine, reference compound]",% Behavioral improvement,[5]; [10],29.32%
same,Neurological function score After modeling,[5]; [10],2 (2×) and 1 (2×) and 3 (2×)
same,% Improvement of cerebral infarction area,[6]; [10],23.24%
same,Cerebral infarction area,[6]; [10],58.88 mm^3 and 20.71 mm^3 and 0 mm^3 and 244.96 mm^3 and 204.11 mm^3 and 20.31 mm^3
same,Effect on cisplatin-induced increase of blood creatinine and urea nitrogen (in words),"[3]; 30 min prior to cisplatin 5 mg/kg i.p.: compound B 200 mg/kg i.p., compound A 800 mg/kg p.o., amifostine 200 mg/kg i.p., day 5",significantly reduce the increased blood creatinine and urea nitrogen levels
same,Creatinine,[3]; [11],19.8 µmol/L and 38.9 µmol/L and 21.9 µmol/L
same,Urea nitrogen,[3]; [11],5.51 mmol/L and 5.34 mmol/L and 5.49 mmol/L
same,Change in body weight of cisplatin-induced SD rats,"[4]; 30 min prior to cisplatin 5 mg/kg i.p.: compound B 200 mg/kg i.p., compound A 800 mg/kg p.o., amifostine 200 mg/kg i.p., weighed daily",the degree of decrease was significantly better than that of the cisplatin group
same,Changes in the intestinal villi structure (HE staining),[7],milder than that in the irradiation group
same,Inflammatory cell infiltration / radiation pneumonitis in lung (HE staining),[8],could partially relieve the inflammatory cell infiltration and reduce the occurrence of radiation pneumonitis
